# “Also recorded” adds a separate entry of the source.
# Legend:
# [1] = Sickness behavior and weight loss after LPS in mice; type: in vivo, mouse; settings: for effect of NSAID on LPS-induced sickness behavior and weight loss: oral NSAID course
# Description: LPS-induced transient illness is associated with mild but persistent memory impairment. Hippocampal neurogenesis, a phenomenon that persists throughout life in men and mice alike, has been linked to learning and memory by several groups. Manipulations that chronically deplete hippocampal neurogenesis produce concomitant impairments in cognition, particularly hippocampus-dependent memory. […] To determine whether LPS-induced illness affects learning and/or memory during either the acute recovery phase or in asymptomatic mice, a single 0 or 5 mg/kg injection of LPS was administered with daily subcutaneous saline injections over 4 days to maintain hydration and their behavior examined in locomotor chambers and/or the Morris water maze task either in the week following treatment or beginning 4 weeks after treatment when the decrease in net neurogenesis is most apparent.
# Subjects. All mice used as subjects in this study were treated in accordance with the policies set forth by the Stanford Animal Care and Use Committee and NIH regarding the ethical use of animals for experimentation. CB57BI/6 mice (7 wks old upon arrival from -Taconic) were housed in groups of 4-5 in autoclaved shoebox cages under standard conditions and were given free access to autoclaved Prolab Mouse 3000 chow (PMI Nutrition International, St. Louis, Mo.) and autoclaved tap water. […] Louis, Mo.) to induce transient illness (Day 0) and daily subcutaneous (s.c.) isotonic saline (0.5 ml) injections (Days 0-3) to prevent illness-induced dehydration. The cell synthesis marker bromodeoxyuridine (BrdU; Sigma Aldrich, St. Louis, Mo.) was injected i.p. (50 mg/kg at a concentration of 10 mg/ml in freshly prepared isotonic saline) once per day for 6 days to label dividing cells, beginning Day 0 (2 h after LPS). The mice were anesthetized with ketamine/xylazine and killed at Days 7 or 28 (to assess hippocampal neurogenesis during illness and just before behavioral testing, respectively) or Day 80 (to measure hippocampal neurogenesis following behavioural testing) by perfusion with 4% paraformaldehyde. Brains were post-fixed overnight in perfusate, microtome sectioned at 40 μm through the hippocampus and stored in tissue cryoprotectant solution at −20° C. until processed immunohistochemically.
# hippocampal neurogenesis = test: LPS-induced systemic inflammation, hippocampal neurogenesis, one-week BrdU labeling paradigm; type: in vivo, rat
# Method: To determine the effects of inflammation on adult hippocampal neurogenesis, bacterial lipopolysaccharide (LPS) was injected into adult female rats to induce systemic inflammation. The intraperitoneal administration of LPS causes a peripheral inflammatory cascade that is transduced to the brain via IL-1β from the cerebral vasculature and causes a strong upregulation of central pro-inflammatory cytokine production. Following LPS exposure, rats were treated systemically with bromo-deoxyuridine (BrdU) for 6 days to label proliferating cells within the hippocampus. Animals were then sacrificed on the 7th day. The fate of the BrdU-labeled, proliferative cells was analyzed with immuno-fluorescent staining and confocal microscopy.
# Control animals were given either vehicle (5% bicarbonate) injections i.p. or plain dog food. To ensure complete consumption of food and medication in the 2 month paradigm, rats were restricted to 80% of their ad lib intake.
# LPS exposure. Bacterial lipopolysaccharide (LPS, Sigma, St Louis, Mo.) was administered in sterile saline by intraperitoneal injection at a dose of 1 mg/Kg one time. This caused mild sickness behavior (decreased grooming, decreased locomotor activity, increased piloerection) for approximately 2 days, resolving by the 3rd day. The dose of LPS chosen causes mild sickness behavior in rats that resolves within 1-2 days; the dose of LPS used to induce endotoxic shock is 10-fold higher than that used in the present study.
# Immunocytochemistry and immunofluorescent staining. Free floating sections were immunostained as previously described using the following primary antibodies and working concentrations: mouse anti-NeuN (1:4, gift from R. Mullen); guinea pig-anti GFAP (1:800, Harlan, Indianapolis, Ind.); mouse anti-type III βtubulin (Tuj-1, 1:500, Berkeley Antibody Co., Richmond, Calif.); rabbit anti-NG2 (1:200, Chemicon, Temecula, Calif.); mouse anti-rat CD11b (1:200, Serotec, Oxford, U.K.); mouse anti-ED-1 (1:100, Research Diagnostics Inc., Flanders, N.J.); biotinylated-Lycopersicon esculentum (tomato) lectin (1:200, Vector, Burlingame, Calif.).
# Confocal microscopy. All confocal microscopy was performed using a Zeiss 510 confocal microscope. Appropriate gain and black level settings were determined on control tissues stained with secondary antibodies alone. Upper and lower thresholds were always set using the range indicator function to minimize data loss through saturation.
# Cell counting and unbiased stereology. All counts were limited to the hippocampal granule cell layer proper and a 50 μm border along the hilar margin that included the neurogenic subgranule zone. The proportion of BrdU cells displaying a lineage-specific phenotype was determined by scoring the co-localization of cell phenotype markers with BrdU using confocal microscopy. Split panel and z-axis analysis were used for all counting. All counts were performed using multi-channel configuration with a 40× objective and electronic zoom of 2. When possible, 100 or more BrdU-positive cells were scored for each marker per animal. Each cell was manually examined in its full “z”-dimension and only those cells for which the nucleus was unambiguously associated with the lineage-specific marker were scored as positive. The total number of BrdU-labeled cells per hippocampal granule cell layer and subgranule zone was determined using diaminobenzadine stained tissues. In a separate series, the total number of ED1-labeled cells per dentate gyrus was also determined using diaminobenzadine stained tissue. Stained BrdU-positive nuclei or ED1-positive cells were scored under light microscopy using Microbrightfield Stereo Investigator software and the Fractionator method. Overestimation was corrected using the Abercrombie method for nuclei with empirically determined average diameter of 13 μm within a 40 μm section.
# [2] = indomethacin 2.5 mg/kg i.p. twice each day with LPS
# [3] = LPS 1 mg/Kg i.p. once, sacrifice on 7th day
Molecule,effect of NSAID on LPS-induced sickness behavior and weight loss ([1]; LPS 5 mg/kg),"effect of NSAID on LPS-induced sickness behavior and weight loss ([1]; LPS 5 mg/kg, listed as Indomethacin)",effect on density of activated microglia (ED1+) after LPS (hippocampal neurogenesis; [2]),effect on distance from BrdU+ nucleus to nearest vessel after LPS (hippocampal neurogenesis; [2]),"effect on LPS-induced inhibition of neurogenesis (hippocampal neurogenesis; indomethacin 2.5 mg/kg i.p. twice each day, concurrently with LPS)","effect on neurogenesis in control animals (drug alone) (hippocampal neurogenesis; indomethacin 2.5 mg/kg i.p. twice each day, no LPS)",days to recovery of body weight ([1]; LPS 5 mg/kg) [days],days to recovery of body weight ([1]; LPS 7.5 mg/kg) [days],days to recovery of body weight ([1]; LPS 10 mg/kg) [days],"onset of sickness behavior (hunching, piloerection, sweaty fur) ([1]; after LPS injection) [h]",day by which weight loss is fully restored ([1]; lowest LPS dose tested) [days],loss of body weight ([1]; lowest LPS dose tested (titration 5-10 mg/kg)),loss of body mass ([1]; within 2 d following LPS injection),decrease in hippocampal neurogenesis (proportion of non-microglial BrdU+ cells co-expressing Dcx) (hippocampal neurogenesis; [3]) [%],increase in the density of activated microglia (CD68/ED1-positive) in the dentate gyrus (hippocampal neurogenesis; [3]) [%]
COc1ccc2c(c1)c(CC(=O)O)c(C)n2C(=O)c1ccc(Cl)cc1 [indomethacin],not significantly attenuated,not significantly affected,decreases this inflammatory response,restores the vascular association,completely blocked; also recorded: restores neurogenesis,no effect,,,,,,,,,
lipopolysaccharide [LPS],,,,,,,4,5,6,1 to 2,≤ 6,roughly 20%,approximately 10%,35,240

# Source: patent publication US7998460B2, “Prevention of deficits in neurogenesis with anti-inflammatory agents” (The Board of Trustees of the Leland Stanford Junior …, priority 2003, dated 2011)
